Source: US9499550B2 (BRISTOL-MYERS SQUIBB COMPANY, priority 2012, dated 2016)
pEC50: −log10 of the molar value. Like-named read-outs stand apart in the source and are kept apart here.

Columns and labels:
[1] = test system: HCV genotype 1a (H77 strain) replicon in HUH-7 cells; experiment: HCV replicon luciferase reporter assay, genotype 1a; type: cell-based; details: 3 days incubation
Description: (§1) Generation of HCV Replicon
(§2) An HCV replicon whole cell system was established as described by Lohmann V, Korner F, Koch J, Herian U, Theilmann L, Bartenschlager R., Science 285(5424):110-3 (1999) and modified to introduce a luciferase reporter, as first described by Krieger et al (Krieger N, Lohmann V, and Bartenschlager R, J. Virol. 75(10):4614-4624 (2001)). CDNA encoding a humanized form of the Renilla luciferase gene and a linker sequence fused directly to the 3′-end of the luciferase gene were introduced into the replicon construct using an Asc1 restriction site located in core, directly upstream of the neomycin marker gene. The adaptive mutation at position 1179 (serine to isoleucine) was also introduced (Blight K J, Kolykhalov, A A, Rice, C M, Science 290(5498):1972-1974). A stable cell line constitutively expressing this HCV replicon construct was generated by first linearizing plasmid DNAs with ScaI. RNA transcripts were synthesized in vitro using the T7 MegaScript transcription kit (Ambion, Austin, Tex.) according to manufacturer's directions. In vitro transcripts of the cDNA were transfected into the human hepatoma cell line, HUH-7. […] Resulting cell lines were characterized for positive and negative strand RNA production and protein production over time.
A stable HCV replicon luciferase reporter cell line representing the genotype 1a H77 strain (Yanagi M, Purcell R H, Emerson S U, et al. Transcripts from a single full-length cDNA clone of hepatitis C virus are infectious when directly transfected into the liver of a chimpanzee. Proc Natl Acad Sci USA 1997; 94(16):8738-8743) was generated as described previously for the genotype 1b(Con1) replicon luciferase cell line. The replicon construct was modified by introducing mutations were introduced into the genes encoding the NS3 helicase domain (proline replaced by leucine at position 1496) and NSSA (serine to isoleucine at position 2204) to improve replication in cell culture.
(§3) HCV Replicon Luciferase Reporter Assay
(§4) HCV replicon luciferase assays were developed to monitor the inhibitory effects of compounds described in the disclosure on HCV genotypes 1a and 1b viral replication. HUH-7 cells, constitutively expressing the HCV replicon, were grown in Dulbecco's Modified Eagle Media (DMEM) (Gibco-BRL) containing 10% Fetal calf serum (FCS) (Sigma) and 1 mg/mL G418 (Gibco-BRL). Compounds were serially diluted 3 folds in DMSO for a twenty-point titration and subsequently transferred to sterile 384-well tissue-culture treated plates (Corning cat #3571). The plates were then seeded with 50 μL of cells at a density of 3.0×10^3 cells/well in DMEM containing 4% FCS (final DMSO concentration at 0.5%). After 3 days incubation at 37° C., cells were analyzed for Renilla Luciferase activity using the EnduRen as substrate (Promega cat #E6485). The EnduRen substrate was diluted in DMEM and then added to the plates to a final concentration of 7.5 μM. The plates were incubated for 2 hrs at 37° C. and then read immediately for 30 seconds with Viewlux Imager (PerkinElmer) using a luminescence program. To assess cytotoxicity of compounds, CC50 values were generated by multiplexing the EnduRen-containing plates with Cell Titer-Blue (Promega, cat # G8082). Cell-Titer Blue (3 μL) was added to each well and incubated for 8 hrs at 37° C. The fluorescence signal from each well was read, with an excitation wavelength at 525/10 nm and an emission wavelength of 598/10 nm, using the Viewlux Imager.
(§5) The EC50 values for compounds were calculated by using a four-parameter logistic equation: y=A+((B−A)/(1+((C/x)^D))), where A and B denotes minimal and maximal % inhibition, respectively, C is the EC50, D is the hill slope and x represents compound concentration.

[2] = test system: HCV genotype 1b (Con1) replicon in HUH-7 cells; experiment: HCV replicon luciferase reporter assay, genotype 1b; type: cell-based; details: 3 days incubation
Description: as §1
as §2, with “time. […]” for “time.”
as §3, §4, §5

[3] = HCV genotype 1a replicon luciferase, read-out: LE_1a (EC50, range)
[4] = HCV genotype 1b replicon luciferase, read-out: LE_1b (EC50, range)
[5] = Hepatitis C virus, Huh-7, 72 h, HCV genotype 1a replicon luciferase assay, range class, read-out: LE_1a (EC50, range)
[6] = Hepatitis C virus, Huh-7, 72 h, HCV genotype 1b replicon luciferase assay, range class, read-out: LE_1b (EC50, range)

In the case of “1,1,1-trifluoro-2-methylpropan-2-yl((2R,6S,7R,9R,13aS,14aR,16aS,Z)-14a-((cyclopropylsulfonyl)carbamoyl)-2-((3,7-dimethoxy-2-(trifluoromethyl)quinoxalin-6-yl)oxy)-7-ethyl-9-methyl-5,16-dioxo-1,2,3,5,6,7,8,9,10,11,13a,14,14a,15,16,16a-hexadecahydrocyclopropa[e]pyrrolo[1,2-a][1,4]diazacyclopentadecin-6-yl)carbamate [Compound 4355]”, the pEC50 [1, 3] was 7.46 to 8.30 and the pEC50 [2, 4] was 7.46 to 8.30.
Molecule “3,3-difluoro-2-methylbutan-2-yl((2R,6S,7R,9R,13aS,14aR,16aS,Z)-7-ethyl-2-((2-(3-fluoro-4-isopropoxyphenyl)-7-methoxyquinolin-4-yl)oxy)-9-methyl-14a-(((1-methylcyclopropyl)sulfonyl)carbamoyl)-5,16-dioxo-1,2,3,5,6,7,8,9,10,11,13a,14,14a,15,16,16a-hexadecahydrocyclopropa[e]pyrrolo[1,2-a][1,4]diazacyclopentadecin-6-yl)carbamate [Compound 5550]” has a pEC50 [1, 3] of 9.00 to 9.29 and a pEC50 [2, 4] of 8.30 to 9.00.
Work on CC1CC/C=C\[C@@H]2C[C@@]2(C(=O)NS(=O)(=O)C2(CF)CC2)NC(=O)[C@@H]2C[C@@H](Oc3nccc4c5c(ccc34)OCCO5)CN2C(=O)[C@@H](NC(=O)OC(C)(C)C)[C@H](C)C1 (stereo in doubt) [Compound 5321, tert-butyl ((2R,6S,7R,9R,13aS,14aR,16aS,Z)-2-((2,3-dihydro-[1,4]dioxino[2,3-f]isoquinolin-7-yl)oxy)-14a-(((1-(fluoromethyl)cyclopropyl)sulfonyl)carbamoyl)-7,9-dimethyl-5,16-dioxo-1,2,3,5,6,7,8,9,10,11,13a,14,14a,15,16,16a-hexadecahydrocyclopropa[e]pyrrolo[1,2-a][1,4]diazacyclopentadecin-6-yl)carbamate] yielded a pEC50 ([1]; Hepatitis C virus, Huh-7, 72 h, HCV genotype 1a replicon luciferase, read-out: LE_1a (EC50, range)) greater than 8.26 and a pEC50 ([2]; Hepatitis C virus, Huh-7, 72 h, HCV genotype 1b replicon luciferase, read-out: LE_1b (EC50, range)) greater than 8.26.
In the case of COc1ccc2c(O[C@@H]3C[C@H]4C(=O)N[C@]5(C(=O)NS(=O)(=O)C6CC6)C[C@H]5/C=C\CC[C@@H](C)C[C@@H](C)[C@H](NC(=O)OC(C)(C)C(F)(F)F)C(=O)N4C3)nccc2c1 [Compound 7, 1,1,1-trifluoro-2-methylpropan-2-yl((2R,6S,7R,9R,13aS,14aR,16aS,Z)-14a-((cyclopropylsulfonyl)carbamoyl)-2-((6-methoxyisoquinolin-1-yl)oxy)-7,9-dimethyl-5,16-dioxo-1,2,3,5,6,7,8,9,10,11,13a,14,14a,15,16,16a-hexadecahydrocyclopropa[e]pyrrolo[1,2-a][1,4]diazacyclopentadecin-6-yl)carbamate], the pEC50 [1, 5] was greater than 8.26 and the pEC50 [2, 6] was greater than 8.26.
For COc1ccc2c(O[C@@H]3C[C@H]4C(=O)N[C@]5(C(=O)NS(=O)(=O)C6(F)CC6)C[C@H]5/C=C\CC[C@@H](C)C[C@@H](C)[C@H](NC(=O)OC(C)(C)C)C(=O)N4C3)nccc2c1 [Compound 9, tert-butyl ((2R,6S,7R,9R,13aS,14aR,16aS,Z)-14a-(((1-fluorocyclopropyl)sulfonyl)carbamoyl)-2-((6-methoxyisoquinolin-1-yl)oxy)-7,9-dimethyl-5,16-dioxo-1,2,3,5,6,7,8,9,10,11,13a,14,14a,15,16,16a-hexadecahydrocyclopropa[e]pyrrolo[1,2-a][1,4]diazacyclopentadecin-6-yl)carbamate], the pEC50 [1, 5] was greater than 8.26 and the pEC50 [2, 6] was greater than 8.26.
COc1ccc2c(O[C@@H]3C[C@H]4C(=O)N[C@]5(C(=O)NS(=O)(=O)C6(F)CC6)C[C@H]5/C=C\CC[C@H](C)C[C@@H](C)[C@H](NC(=O)OC(C)(C)C)C(=O)N4C3)nccc2c1 [Compound 10, tert-butyl ((2R,6S,7R,9S,13aS,14aR,16aS,Z)-14a-(((1-fluorocyclopropyl)sulfonyl)carbamoyl)-2-((6-methoxyisoquinolin-1-yl)oxy)-7,9-dimethyl-5,16-dioxo-1,2,3,5,6,7,8,9,10,11,13a,14,14a,15,16,16a-hexadecahydrocyclopropa[e]pyrrolo[1,2-a][1,4]diazacyclopentadecin-6-yl)carbamate] was tested, and the pEC50 [1, 5] was greater than 8.26, the pEC50 ([1]; Hepatitis C virus, Huh-7, 72 h, HCV genotype 1a replicon luciferase assay, read-out: LE_1a (EC50)) was 8.51 and the pEC50 [2, 6] was greater than 8.26. The pEC50 ([2]; Hepatitis C virus, Huh-7, 72 h, HCV genotype 1b replicon luciferase assay, read-out: LE_1b (EC50)) was 9.10.
COc1ccc2c(O[C@@H]3C[C@H]4C(=O)N[C@]5(C(=O)NS(=O)(=O)C6(F)CC6)C[C@H]5/C=C\CC[C@@H](C)C[C@@H](C)[C@H](NC(=O)OC(C)(C)C(F)(F)F)C(=O)N4C3)nccc2c1 [Compound 11] gave a pEC50 ([1]; Hepatitis C virus, GETYPE1A, Huh-7, 72 h, HCV genotype 1a replicon luciferase assay, range class, read-out: LE_1a (EC50, range)) greater than 8.26 and a pEC50 ([2]; Hepatitis C virus, GETYPE1B, Huh-7, 72 h, HCV genotype 1b replicon luciferase assay, range class, read-out: LE_1b (EC50, range)) greater than 8.26.
Molecule COCCn1nc(O[C@@H]2C[C@H]3C(=O)N[C@]4(C(=O)NS(=O)(=O)C5CC5)C[C@H]4/C=C\CC[C@H](C)C[C@@H](C)[C@H](NC(=O)OC(C)(C)C(C)(F)F)C(=O)N3C2)c2ccccc2c1=O [Compound 1023, 3,3-difluoro-2-methylbutan-2-yl((2R,6S,7R,9S,13aS,14aR,16aS,Z)-14a-((cyclopropylsulfonyl)carbamoyl)-2-((3-(2-methoxyethyl)-4-oxo-3,4-dihydrophthalazin-1-yl)oxy)-7,9-dimethyl-5,16-dioxo-1,2,3,5,6,7,8,9,10,11,13a,14,14a,15,16,16a-hexadecahydrocyclopropa[e]pyrrolo[1,2-a][1,4]diazacyclopentadecin-6-yl)carbamate] has a pEC50 [2, 6] of less than 7.06.
With COc1ccc2c(O[C@@H]3C[C@H]4C(=O)N[C@]5(C(=O)NS(=O)(=O)C6(CF)CC6)C[C@H]5/C=C\CC[C@H](C)C[C@@H](C)[C@H](NC(=O)OC(C)(C)C(C)(F)F)C(=O)N4C3)nccc2c1 [Compound 1142, 3,3-difluoro-2-methylbutan-2-yl((2R,6S,7R,9S,13aS,14aR,16aS,Z)-14a-(((1-(fluoromethyl)cyclopropyl)sulfonyl)carbamoyl)-2-((6-methoxyisoquinolin-1-yl)oxy)-7,9-dimethyl-5,16-dioxo-1,2,3,5,6,7,8,9,10,11,13a,14,14a,15,16,16a-hexadecahydrocyclopropa[e]pyrrolo[1,2-a][1,4]diazacyclopentadecin-6-yl)carbamate] the pEC50 [2, 6] was greater than 8.26.
